Reference: US12391768B2, “Antibodies to ticagrelor and methods of use” (MEDIMMUNE LIMITED, priority 2014, dated 2025)
pIC50: −log10 of the molar value. Like-named read-outs stand apart in the source and are kept apart here.

Legend:
TICA0072 Fab = assay: HTRF competition binding selectivity assay, TICA0072 His-Fab; set-up: species or system human
Experimental: Total Binding control wells were set up which contained all of the assay components above except that 5 ul assay buffer was added in place of the test selectivity compound addition. Negative Binding control wells were set up which contained all of the assay components included in the Total Binding control wells except that 5ul assay buffer was added in place of the His-Fab addition. Test compound serial titrations were either ½ or ⅓ depending on the particular experiment and top final assay compound concentrations were optimized on a compound specific basis. The concentration of biotinylated ticagrelor and His-Fab was optimized on a Fab specific basis in separate experiments. For the four Fabs investigated at the end of the lead isolation phase (TICA0010, TICA0049, TICA0053 and TICA0072) the final assay reagent concentrations used are set out in Table 1 below:
For the two Fabs investigated at the end of the lead optimization phase (TICA0162 and TICA0212) the final assay reagent concentrations used were 5nM biotinylated ticagrelor and 1 nM His Fab in both cases. […] In order to enable subsequent normalization of data to correct for any such vehicle related effects parallel titrations of DMSO alone were included in most experiments in which the final assay DMSO concentrations mirrored those of the test compound serial dilutions. At the end of the set up procedure that assay was incubated for 3hrs at RT before being read on an Envision plate reader using a standard read protocol.
The negative ratio value used in the calculation of % Delta F was derived from the Negative Binding control wells. % Delta F values were then used to calculate % Specific Binding values according to the equation below: Specific Binding (%)={(Sample Delta F−Negative Binding Delta F)/(Total Binding Delta F−Negative Binding Delta F)}×100
For standard calculations of % Specific Binding Total Binding Delta F was taken from Total Binding control wells which contained all of the aforementioned components of the assay but without inclusion of any competing test compound.
In those experiments where DMSO normalization was applied DMSO normalised % Specific Binding was calculated essentially according to the equation above except that in this case Total Binding Delta F was taken from wells containing all of the components in the Total Binding control wells as well as DMSO at a concentration equivalent to that in the relevant sample well.
In a second series of experiments further selectivity data was generated for TICA0049 and TICA0072 Fabs in which a subset of four of the twelve compounds listed in FIG. 4 were retested along with ticagrelor, TAM and TIM and several adenosine related compounds. Here, in a refinement to the earlier investigations in Table 2, experiments were designed in order to enable normalisation of percent specific binding values to correct for any non-specific vehicle related effects due to DMSO. Example plotted data from this second series of experiments is shown in FIG. 5A-F along with tabulated IC50 values in Table 3.

[1] = Total plasma concentration of ticagrelor and TAM (LC-MS/MS); type: in vivo, mice
Experimental: Blood samples were collected in tubes with EDTA anticoagulant and centrifuged for 5 min at 10000× g at room temperature to prepare plasma. The plasma concentration of ticagrelor and TAM were determined by protein precipitation and liquid chromatography with tandem mass spectrometry (LC-MS/MS) as described in published method [Sillén H., et al., J Chromatogr B Analyt Technol Biomed Life Sci 2010; 878: 2299-306] with the following deviations. Plasma, 50 μL, was protein precipitated with 180 μl internal standard (D7-ZD6140) in acetonitrile. The liquid chromatographic system and mass spectrometer was an Acquity Ultra Performance LC coupled to a Xevo TQ-S mass spectrometer from Waters. Chromatographic separation was achieved on an Aquity UPLC® BEH C18 column (2.1×50 mm, particle size 1.7 um). Negative electrospray ionization was utilized. Eluent A was water with 10 mmol/L ammonium acetate, pH5 and eluent B was acetonitrile with 10 mmol/L ammonium acetate. Injection volume was 1 to 5 μL and the analytical gradient started with 4% B, increasing to 95% in 1.5 min, remaining until 2.3 min, before returning to initial conditions within 2.4 min followed by 0.3 min re-equilibration. No quality control samples were used in the analysis. The lower limit of quantification (LLOQ) was 0.005 μmol/L and the calibration range was 0.005 to 15.0 μM.
The total plasma concentrations of ticagrelor and TAM in presence of TICA0212/MEDI2452 were determined by adding 1% formic acid (FA: Sample, 1:5) followed by protein precipitation and LC-MS/MS as described above. Formic acid was added to the sample to facilitate dissociation of ticagrelor and TICA0212/MEDI2452.

[2] = set-up: species or system mice; conditions: mouse, in vivo
Experimental: The method was optimized based on a previous published method [Sillen H., et al., J Chromatogr B Analyt Technol Biomed Life Sci. 2011 Aug. 1; 879(23): 2315-22]. Dialysis membranes (Spectrum Laboratories, Inc) which allows molecules with a mass below 6 to 8 kDa to pass through, was soaked in ELGA water for 10 to 15 min and placed between the dialysis plate halves (in house made). Plasma, 130 μL, was added to one side of the dialysis plate and 130 μL phosphate buffer, pH 7.0, was added to the opposite side. The wells on both sides were sealed with lids and aluminum plates were put on top on each side of the plate to avoid leakage. The plate was then placed vertical on an orbital shaker at 100 rpm/min at 37° C. for 24 h. The dialysis was terminated by transferring of 50 μL retentate from plasma side and 75 μL dialysate from buffer side to a protein LoBind PCR clean 96 deep-well plate containing 150 μL respective 75 μL internal standard (D7-ZD6140) in acetonitrile. The plate was mixed for 1 min and then centrifuged for 20 min, 1500× g at 4° C. After centrifugation 50 μL supernatant from the precipitated retentate was transferred and diluted with 50 μL ELGA H2O before LC-MS/MS (Acquity Ultra Performance LC coupled to a Xevo TQ-S mass spectrometer, Waters) analysis. No quality control samples were used in the analysis. […]

CCCSc1nc(N[C@@H]2C[C@H]2c2ccc(F)c(F)c2)c2nnn([C@@H]3C[C@H](OCCO)[C@@H](O)[C@H]3O)c2n1 [Ticagrelor, (1S,2S,3R,5S)-3-[7-{[(1R,2S)-2-(3,4-difluorophenyl)cyclopropyl]amino}-5-(propylthio)-3H-[1,2,3]triazolo[4,5-d]pyrimidin-3-yl]-5-(2-hydroxyethoxy)cyclopentane-1,2-diol]
IC50 (TICA0072 Fab; first series (Table 2), not DMSO normalised, read-out: IC50 (uM) for inhibition of biotinylated ticagrelor binding to TICA0072 his-Fab): 0.113 µM | pIC50 (TICA0072 Fab; second series (Table 3), DMSO normalised, read-out: IC50 in competition binding selectivity studies, TICA0072): 6.45 | ticagrelor plasma exposure, average ([1]; Example 11, after termination of the ticagrelor infusion, i.v., mice): 1.4 µM | mean total plasma concentration ([1]; Example 12, end of ticagrelor infusion 300 μg/kg/min 20 min, mice): 7.6 µM | mean total plasma concentration at time of tail cut ([1]; Example 12, vehicle treated mice, t=30 minutes): 2.4 µM | mean free plasma concentration of ticagrelor [2]: 4.7 nM
